In ChEMBL document CHEMBL5214965, “Synthesis and antidepressant activity of novel 1-(1-benzoylpiperidin-4-yl) methanamine derivatives selectively targeting SSRI/5-HT1A” (Bioorg Med Chem Lett, 2022):
Activity calls are given as the source filed them. No cut-off for these calls is given here.

Assays:
in vitro [1] = conditions: human, liver microsomes
in vitro [2] = conditions: human, liver microsomes; remark: listed apart in the source
Description: Metabolic stability in human liver microsomes assessed as clearance

in vitro [3] = conditions: mouse, liver microsomes
Description: Metabolic stability in mouse liver microsomes assessed as half life

in vitro [4] = conditions: mouse, liver microsomes; remark: listed apart in the source
Description: Metabolic stability in mouse liver microsomes assessed as clearance

[5] = target: Sodium-dependent serotonin transporter (Rattus norvegicus) (UniProt P31652); assay: Inhibition of serotonin transporter in rat brain tissue assessed as inhibition of [3H]-5-hydroxytryptamine reuptake at 1 uM relative to control; type: tissue-based
[6] = target: T1, 5-hydroxytryptamine receptor 1A (Homo sapiens) (UniProt P08908); assay: Displacement of [3H][…] from 5-HT1A receptor in human HEK293 cells at 1 uM measured after 60 mins by scintillation counting method relative to control; type: cell-based
T1 sequence (whole entry): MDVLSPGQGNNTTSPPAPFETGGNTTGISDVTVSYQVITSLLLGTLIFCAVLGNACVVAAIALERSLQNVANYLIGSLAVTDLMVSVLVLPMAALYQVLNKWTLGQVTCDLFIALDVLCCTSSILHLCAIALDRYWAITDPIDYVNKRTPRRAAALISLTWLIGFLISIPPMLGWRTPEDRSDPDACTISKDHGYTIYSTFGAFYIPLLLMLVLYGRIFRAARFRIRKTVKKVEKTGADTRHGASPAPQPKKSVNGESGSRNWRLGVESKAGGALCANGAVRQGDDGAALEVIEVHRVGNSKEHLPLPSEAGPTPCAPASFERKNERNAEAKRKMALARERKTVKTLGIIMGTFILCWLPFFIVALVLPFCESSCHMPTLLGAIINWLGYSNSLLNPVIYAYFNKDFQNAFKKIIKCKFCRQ

Mus musculus [7] = assay: Antidepressant activity in ICR mouse assessed as reduction in immobility time at 0.6 mg/kg, po for 7 days by tail suspension test; type: functional; parameters: scale not given: the % may be the effect or the level left; conditions: time 7 day
Mus musculus [8] = assay: Antidepressant activity in ICR mouse assessed as reduction in immobility time at 10 mg/kg, po for 7 days by tail suspension test; type: functional; parameters: scale not given: the % may be the effect or the level left; conditions: time 7 day
Mus musculus [9] = assay: Antidepressant activity in ICR mouse assessed as reduction in immobility time at 0.6 mg/kg, po for 7 days by forced swimming test; type: functional; parameters: scale not given: the % may be the effect or the level left; conditions: time 7 day
[10] = Binding affinity to 5-HT6 receptor (unknown origin) assessed as inhibition constant; parameters: species or system Homo sapiens
[11] = target: 5-hydroxytryptamine receptor 1B (Homo sapiens) (UniProt P28222); assay: Inhibition of 5-HT1B receptor (unknown origin); conditions: concentration not given here
[12] = target: Sodium-dependent serotonin transporter (Rattus norvegicus, UniProt P31652); assay: Inhibition of serotonin transporter in rat brain tissue assessed as inhibition of [3H]-5-hydroxytryptamine reuptake; type: tissue-based
[13] = target: T2, 5-hydroxytryptamine receptor 1A (Homo sapiens, UniProt P08908); assay: Displacement of [3H][…] from 5-HT1A receptor in human HEK293 cells measured after 60 mins by scintillation counting method; type: cell-based
T2 sequence (P08908 whole entry): T1 sequence (whole entry)

[14] = target: 5-hydroxytryptamine receptor 1D (Homo sapiens) (UniProt P28221); assay: Inhibition of 5-HT1D receptor (unknown origin); conditions: concentration not given here
[15] = target: 5-hydroxytryptamine receptor 2A (Homo sapiens) (UniProt P28223); assay: Inhibition of 5-HT2A receptor (unknown origin); conditions: concentration not given here
[16] = target: T3, 5-hydroxytryptamine receptor 2C (Homo sapiens) (UniProt P28335); assay: Inhibition of 5-HT2C receptor (unknown origin); conditions: concentration not given here
T3 sequence (whole entry): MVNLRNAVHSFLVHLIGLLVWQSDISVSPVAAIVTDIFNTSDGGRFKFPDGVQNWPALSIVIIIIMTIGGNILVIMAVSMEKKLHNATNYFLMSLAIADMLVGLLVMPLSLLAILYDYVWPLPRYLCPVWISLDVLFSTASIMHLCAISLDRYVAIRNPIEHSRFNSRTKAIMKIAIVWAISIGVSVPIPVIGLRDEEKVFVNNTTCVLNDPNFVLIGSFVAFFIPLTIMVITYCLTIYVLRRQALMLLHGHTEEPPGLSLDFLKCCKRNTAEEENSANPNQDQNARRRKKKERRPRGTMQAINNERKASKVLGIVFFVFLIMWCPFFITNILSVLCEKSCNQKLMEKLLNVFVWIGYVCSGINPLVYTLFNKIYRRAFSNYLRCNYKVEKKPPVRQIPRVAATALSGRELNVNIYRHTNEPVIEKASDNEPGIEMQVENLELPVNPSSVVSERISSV

[17] = target: Serotonin 3 (5-HT3) receptor (Homo sapiens) (UniProt P46098+A5X5Y0+O95264+Q70Z44+Q8WXA8); assay: Inhibition of 5-HT3 receptor (unknown origin); type: protein-complex assay; conditions: concentration not given here
Homo sapiens [18] = species: Homo sapiens; assay: Inhibition of 5-HT6 receptor (unknown origin); conditions: concentration not given here
Homo sapiens [19] = species: Homo sapiens; assay: Inhibition of 5-HT7 receptor (unknown origin); conditions: concentration not given here
[20] = Binding affinity to 5-HT7 receptor (unknown origin) assessed as inhibition constant; parameters: species or system Homo sapiens
Mus musculus [21] = assay: Antidepressant activity in ICR mouse assessed as reduction in immobility time at 0.6 to 80 mg/kg, po for 7 days by forced swimming test; type: functional, organism-based; conditions: dose 0.6-80 mg/kg, time 7.0 day

Chain of Sodium-dependent serotonin transporter (Rattus norvegicus) (P31652 whole entry): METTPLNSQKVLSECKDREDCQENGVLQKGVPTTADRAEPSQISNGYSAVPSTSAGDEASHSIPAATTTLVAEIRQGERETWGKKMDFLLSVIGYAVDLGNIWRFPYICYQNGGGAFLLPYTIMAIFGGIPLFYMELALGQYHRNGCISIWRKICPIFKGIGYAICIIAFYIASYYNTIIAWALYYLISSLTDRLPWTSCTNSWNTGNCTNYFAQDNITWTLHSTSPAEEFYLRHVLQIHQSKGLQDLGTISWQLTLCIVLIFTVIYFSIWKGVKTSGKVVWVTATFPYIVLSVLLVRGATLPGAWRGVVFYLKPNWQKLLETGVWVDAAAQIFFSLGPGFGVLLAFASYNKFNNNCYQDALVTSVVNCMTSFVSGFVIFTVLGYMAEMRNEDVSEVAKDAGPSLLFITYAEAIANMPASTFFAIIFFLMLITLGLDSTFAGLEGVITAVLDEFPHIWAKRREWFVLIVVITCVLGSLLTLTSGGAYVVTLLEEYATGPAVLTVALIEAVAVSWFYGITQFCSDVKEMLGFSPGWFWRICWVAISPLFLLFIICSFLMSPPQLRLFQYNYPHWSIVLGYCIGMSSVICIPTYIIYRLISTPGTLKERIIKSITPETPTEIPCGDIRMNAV
Chain of Sodium-dependent serotonin transporter (P31652 whole entry): as above
Chain of 5-hydroxytryptamine receptor 1B (Homo sapiens) (P28222 whole entry): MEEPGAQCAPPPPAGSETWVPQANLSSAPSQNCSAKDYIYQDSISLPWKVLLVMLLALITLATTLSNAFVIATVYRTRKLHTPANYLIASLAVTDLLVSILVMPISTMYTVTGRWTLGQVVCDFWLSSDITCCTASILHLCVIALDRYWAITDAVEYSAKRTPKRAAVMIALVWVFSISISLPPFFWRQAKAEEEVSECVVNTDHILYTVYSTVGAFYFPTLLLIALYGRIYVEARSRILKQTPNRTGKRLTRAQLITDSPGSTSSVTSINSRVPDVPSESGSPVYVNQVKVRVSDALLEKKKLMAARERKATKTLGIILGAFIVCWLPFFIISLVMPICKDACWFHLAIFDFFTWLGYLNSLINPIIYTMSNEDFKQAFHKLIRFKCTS
Chain of 5-hydroxytryptamine receptor 2A (Homo sapiens) (P28223 whole entry): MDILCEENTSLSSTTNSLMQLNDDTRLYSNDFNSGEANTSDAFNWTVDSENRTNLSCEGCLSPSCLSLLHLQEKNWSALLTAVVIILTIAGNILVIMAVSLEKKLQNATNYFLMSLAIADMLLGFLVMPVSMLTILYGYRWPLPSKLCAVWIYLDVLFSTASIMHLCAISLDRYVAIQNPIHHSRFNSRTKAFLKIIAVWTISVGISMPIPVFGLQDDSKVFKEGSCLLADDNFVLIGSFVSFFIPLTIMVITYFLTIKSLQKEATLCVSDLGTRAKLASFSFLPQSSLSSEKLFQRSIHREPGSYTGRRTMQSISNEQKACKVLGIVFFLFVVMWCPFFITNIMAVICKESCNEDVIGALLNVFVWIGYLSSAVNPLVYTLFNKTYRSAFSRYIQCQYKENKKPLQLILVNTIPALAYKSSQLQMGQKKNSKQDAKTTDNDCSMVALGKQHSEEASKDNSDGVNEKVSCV
Chain of 5-hydroxytryptamine receptor 1D (Homo sapiens) (P28221 whole entry): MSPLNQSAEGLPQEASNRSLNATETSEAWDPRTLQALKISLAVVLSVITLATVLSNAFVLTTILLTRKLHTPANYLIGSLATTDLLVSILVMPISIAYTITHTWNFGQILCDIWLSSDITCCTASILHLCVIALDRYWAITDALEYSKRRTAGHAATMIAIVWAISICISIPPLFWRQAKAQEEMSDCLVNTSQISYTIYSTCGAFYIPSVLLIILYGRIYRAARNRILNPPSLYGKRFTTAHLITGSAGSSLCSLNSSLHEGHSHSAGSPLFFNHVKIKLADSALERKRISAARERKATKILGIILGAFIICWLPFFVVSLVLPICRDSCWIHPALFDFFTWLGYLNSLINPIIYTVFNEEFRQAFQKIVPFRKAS

| Compound | half-life (in vitro [1]) [min] | microsomal CLint (in vitro [2]) [µL/min/mg] | half-life (in vitro [3]) [min] | microsomal CLint (in vitro [4]) [µL/min/mg] | inhibition [5] [%] | inhibition [6] [%] | other results |
| --- | --- | --- | --- | --- | --- | --- | --- |
| N#Cc1ccc2[nH]cc(CCCCN3CCN(c4ccc5oc(C(N)=O)cc5c4)CC3)c2c1 [VILAZODONE] | 26.9 | 51.6 | 23.1 | 60.6 |  |  |  |
| O=C(c1cccc(Cl)c1)N1CCC(CNCCCc2c[nH]c3ccc(F)cc23)CC1 | 9.07 | 153 | 27.8 | 49.8 | 103 | 101 |  |
| Fc1ccc(OCCN2CCC(c3c[nH]c4ccc(F)cc34)CC2)c(-c2ccccc2)c1 |  |  |  |  |  |  | IC50 [12]: 0.5 nM; Ki ([13]; read-out: Ki): 0.2 nM |
| Cc1cc(C(=O)N2CCC(CNCCCc3c[nH]c4ccc(F)cc34)CC2)ccc1F | 3.86 | 559 |  |  | 103 | 100 |  |
| CCCN(CCCc1c[nH]c2ccc(F)cc12)CC1CCN(C(=O)c2ccc(F)c(Cl)c2)CC1 |  |  |  |  | 101 | 86 |  |
| NC(=O)c1ccccc1C(=O)N1CCC(CNCCCc2c[nH]c3ccc(F)cc23)CC1 | 10 | 138 | 13.2 | 105 | 102 | 98 |  |
| Fc1ccc(N2CCN(CCCc3c[nH]c4ccc(F)cc34)CC2)c(-c2ccccc2)c1 |  |  |  |  |  |  | IC50 [12]: 177 nM; Ki ([13]; read-out: Ki): 12 nM |
| O=C(c1ccc(Cl)cc1)N1CCC(CNCCCc2c[nH]c3ccc(F)cc23)CC1 | 19.5 | 70.9 |  |  | 103 | 100 |  |
| Cc1ccc(C(=O)N2CCC(CNCCCc3c[nH]c4ccc(F)cc34)CC2)cc1 | 4.48 | 310 |  |  | 99 | 99 |  |
| NC(=O)c1cccc(C(=O)N2CCC(CNCCCc3c[nH]c4ccc(F)cc34)CC2)c1 | 154 | 9 | 277 | 5 | 102 | 98 |  |
| NC(=O)c1ccc(C(=O)N2CCC(CNCCCc3c[nH]c4ccc(F)cc34)CC2)cc1 | 330 | 4.2 | 102 | 13.6 | 100 | 98 |  |
| O=C(c1ccc(F)c(Cl)c1)N1CCC(NCCCc2c[nH]c3ccc(F)cc23)CC1 |  |  |  |  | 102 | 96 |  |
| CN(CCCc1c[nH]c2ccc(F)cc12)CC1CCN(C(=O)c2ccc(F)c(Cl)c2)CC1 |  |  |  |  | 102 | 94 |  |
| O=C(c1ccc(F)c(Cl)c1)N1CCC(CNCc2cccc(-n3cccn3)n2)CC1 |  |  |  |  |  |  | Ki [13]: 1.54 nM |
| O=C(c1ccc(F)cc1)N1CCC(CNCCCc2c[nH]c3ccc(F)cc23)CC1 | 16.4 | 84.3 |  |  | 101 | 100 |  |

Continued, in another order:

| half-life (in vitro [1]) [min] | microsomal CLint (in vitro [2]) [µL/min/mg] | half-life (in vitro [3]) [min] | microsomal CLint (in vitro [4]) [µL/min/mg] | inhibition [5] [%] | inhibition [6] [%] | Compound | other results |
| --- | --- | --- | --- | --- | --- | --- | --- |
| 11.7 | 118 | 45 | 30.8 | 103 | 99 | O=C(c1ccc(F)c(Cl)c1)N1CCC(CNCCCCc2c[nH]c3ccc(F)cc23)CC1 |  |
| 26.8 | 51.8 | 61.6 | 22.5 | 101 | 99 | O=C(c1ccc(F)c(Cl)c1)N1CCC(CNCCCc2c[nH]c3ccc(F)cc23)CC1 | Activity (Mus musculus [7]): 19%; Activity (Mus musculus [8]): 24%; Activity (Mus musculus [9]): 34%; Ki [10]: 150 nM; inhibition [11]: < 75%; IC50 [12]: 8.2 nM; Ki ([13]; read-out: Ki): 0.069 nM; inhibition [14]: < 75%; inhibition [15]: < 75%; inhibition [16]: < 75%; inhibition [17]: < 75%; inhibition (Homo sapiens [18]): 82%; inhibition (Homo sapiens [19]): 86.5%; Ki [20]: 36 nM; Activity (Mus musculus [21]): Active |
| 12.2 | 113 |  |  | 103 | 100 | N#Cc1ccc2[nH]cc(CCCNCC3CCN(C(=O)c4ccc(F)c(Cl)c4)CC3)c2c1 |  |
| 19.5 | 71.2 |  |  | 103 | 99 | O=C(c1ccc(F)c(F)c1)N1CCC(CNCCCc2c[nH]c3ccc(F)cc23)CC1 |  |
| 30.5 | 45.4 | 30.8 | 44.9 | 101 | 100 | O=C(c1ccc(Cl)c(Cl)c1)N1CCC(CNCCCc2c[nH]c3ccc(F)cc23)CC1 | IC50 [12]: 17 nM; Ki ([13]; read-out: Ki): 0.097 nM |
|  |  |  |  | 101 | 93 | O=C(c1ccc(F)c(Cl)c1)N1CCC(CNCCc2c[nH]c3ccc(F)cc23)CC1 |  |
|  |  |  |  | 101 | 92 | O=C(c1ccc(F)c(Cl)c1)N1CCC(CNCCCCCc2c[nH]c3ccc(F)cc23)CC1 |  |
